Data reported in patent US20190091248A1, “AGENT FOR INCREASING INTESTINAL BUTYRIC ACID AND PROLIFERATION AGENT FOR BUTYRIC ACID-PRODUCING BACTERIA” (B FOOD SCIENCE CO., LTD., priority 2016, published 2019).

Experiments:
[1] = system: Akkermansia muciniphila; test: Real-time PCR of 16S rDNA copy number in cecal contents upon intake of 1-kestose; type: in vivo, SD rats
Experimental: (§1) The amounts of the following 4 microorganisms in the cecal contents of rats in Groups A and E described in Example 1 (1) were measured by real-time PCR.
4. Akkermansia muciniphila
(§2) Specifically, the cecal contents of Groups A and E were disrupted with the bead beating system “FastPrep FP100A” (MP Biomedicals, LLC.). Subsequently, genomic DNA was extracted with the nucleic acid extraction instrument “Magtration® System 12GC” and its exclusive reagent “MagDEA® DNA 200” (Precision System Science Co., Ltd.) according to the instructions. Using this genomic DNA as a template, the real-time PCR was performed with primers specific for the 16S rDNAs of the aforementioned 4 microorganisms, the real-time PCR reagent “SYBR® Premix Ex Taq II (Tli RNaseH Plus)” (Takara), and the real-time PCR device “Rotor-Gene Q” (QIAGEN N.V.) and the copy numbers of the 16S rDNA from each microorganism per 1 g of the cecal contents were determined. The means and standard deviation of the copy numbers were calculated for each group and illustrated in bar graphs.
(§3) The sequences of the primers specific for 16S rDNA of each microorganism are listed below.
(§4) The standard curve was made from the result of real-time PCR for each microorganism under the same conditions using a plasmid DNA in which a part of the following sequence is incorporated as a template.
4. […]

[2] = Food processing and ingredients, Vol. 49, No. 12, p. 9, 2014; cited from earlier work
[3] = system: Clostridium cluster-XIVa and Clostridium cluster-XIVb (a group of butyric acid-producing bacteria); test: Real-time PCR of 16S rDNA copy number in cecal contents upon intake of 1-kestose; type: in vivo, SD rats
Experimental: as §1
2. Clostridium cluster-XIVa and Clostridium cluster-XIVb (a group of butyric acid-producing bacteria),
as §2, §3, §4
2. Clostridium clusters-XIVa and -XIVb (a group of butyric acid-producing bacteria); 16S rDNA sequence (SEQ ID NO: 10) of Clostridium clostridioforme JCM1291T

[4] = system: The genus Lactobacillus; test: as above; type: in vivo, SD rats
Experimental: as §1
3. The genus Lactobacillus
as §2, §3, §4
3. […]

[5] = system: The genus Bifidobacterium; test: as above; type: in vivo, SD rats; conditions: Group E
Experimental: as §1
1. The genus Bifidobacterium,
as §2, §3, §4
1. […]

[6] = system: short chain fatty acids in cecal contents; test: Amount of intestinal short chain fatty acid in cecal contents upon intake of 1-kestose (GC/MS); type: in vivo, SD rats; conditions: for concentration of butyric acid in cecal contents: 30 days ad libitum; for amount of butyric acid in cecal contents: 30 days, calculated from concentration, Group A 781.14 μg
Experimental: (1) Breeding of Rats with Giving Oral Intake of 1-Kestose
The feeds containing 0, 0.5, 1.0, 2.5, and 5% by mass of 1-kestose were prepared by CLEA Japan, Inc. on commission. The composition of the feeds is described below. 40 SD rats (Japan SLC, Inc.) were divided into 5 groups of 8 animals and designated as Groups A to E. The rats were maintained for 30 days with ad libitum feeding of the feed without 1-kestose to Group A and of the ones with 1-kestose to Groups B to E, respectively. The rats were maintained under conditions at 23±1° C. in temperature with 12 hours of light periods (from 8:00 to 20:00) and 12 hours of dark periods (from 20:00 to 8:00).
[Composition (in % by mass) of feeds] Cornstarch 39.7486, milk casein 20, pregelatinized cornstarch 13.2, granulated sugar and/or 1-kestose (99% by mass in purity, B Food Science Co., Ltd.) 10, purified soybean oil 7, cellulose powder 5, mineral mixture 3.5, vitamin mixture 1, L-cystine 0.3, choline bitartrate 0.25, tert-butylhydroquinone 0.0014.
The rats in each group described in Example 1 (1) were dissected and their ceca were extracted. The contents of the ceca were collected and weighed. The concentrations of short chain fatty acids (butyric acid, propionic acid, isobutyric acid, acetic acid, isovaleric acid, and valeric acid) in the cecal contents were measured with a gas chromatography-mass spectrometer (GC/MS). The amounts of the short chain fatty acids in the cecal contents were calculated from the results of the measurement of the short chain fatty acid concentrations. Subsequently, the means of concentrations and amounts of short chain fatty acids for each group were calculated and shown in bar graphs. The results are illustrated in FIGS. 1 to 3.

[7] = system: fatty degeneration and inflammation in the liver by the intake of high-fat meals; conditions: oral administration, 0.02 g/kg body weight per day; cited from earlier work
[8] = system: ulcerative colitis model rats induced by dextran sulfate sodium (DSS); conditions: injection into the intestine; cited from earlier work
[9] = system: LIM1215, human colorectal cancer cells; conditions: final concentration of 1 mmol/L; cited from earlier work
[10] = system: obesity induced by high-fat meals; conditions: cited from earlier work
[11] = system: childhood diabetes model rat; conditions: intraperitoneal, 500 mg/kg of body weight per day (in terms of the dose of sodium butyrate); cited from earlier work
[12] = Group B: feed with 0.5% by mass 1-kestose
[13] = Group C: feed with 1.0% by mass 1-kestose
[14] = Group D: feed with 2.5% by mass 1-kestose
[15] = Group E: feed with 5% by mass 1-kestose
[16] = Groups B, C, D and E, cecal contents

OC[C@H]1O[C@@](CO)(OC[C@@]2(O[C@H]3O[C@H](CO)[C@@H](O)[C@H](O)[C@H]3O)O[C@H](CO)[C@@H](O)[C@@H]2O)[C@@H](O)[C@@H]1O [1-kestose]
copy number of 16S rDNA from Akkermansia muciniphila, Group E versus Group A [1]: did not have significant difference
toxicity in mutagenicity, acute toxicity, subchronic toxicity, and chronic toxicity tests [2]: no toxicity
copy number of 16S rDNA from the group of butyric acid-producing bacteria relative to Group A ([3]; Group E): approximately 5 times of that in Group A
copy number of 16S rDNA from the group of butyric acid-producing bacteria, comparison with Group A in words ([3]; Group E): significantly increased
copy number of 16S rDNA from Clostridium cluster XIV (a group of butyric acid-producing bacteria) ([3]; Group E (5% by mass 1-kestose in feed, 30 days), Group A 5071250000): 25287500000 per 1 g of the cecal contents
copy number of 16S rDNA from Lactobacillus, Group E versus Group A [4]: did not have significant difference
copy number of 16S rDNA from the genus Bifidobacterium in comparison with Group A [5]: significantly increased
increase of butyric acid amount relative to Group A [6, 12]: approximately 1.4 times of that in Group A
increase of butyric acid concentration relative to Group A [6, 12]: approximately 1.4 times of that in Group A
concentration of butyric acid in cecal contents ([6]; Group B: feed with 0.5% by mass 1-kestose, daily intake 0.27 g/kg body weight, Group A (no 1-kestose) 205.86 μg/g): 288.09 µg/g
amount of butyric acid in cecal contents [6, 12]: 1069.37 µg
increase of butyric acid amount relative to Group A [6, 13]: approximately 1.4 times of that in Group A
increase of butyric acid concentration relative to Group A [6, 13]: approximately 1.5 times of that in Group A
concentration of butyric acid in cecal contents ([6]; Group C: feed with 1.0% by mass 1-kestose, Group A 205.86 μg/g): 314.59 µg/g
amount of butyric acid in cecal contents [6, 13]: 1107.92 µg
increase of butyric acid amount relative to Group A [6, 14]: approximately 3.6 times of that in Group A
increase of butyric acid concentration relative to Group A [6, 14]: approximately 3.7 times of that in Group A
concentration of butyric acid in cecal contents ([6]; Group D: feed with 2.5% by mass 1-kestose, Group A 205.86 μg/g): 754.17 µg/g
amount of butyric acid in cecal contents [6, 14]: 2891.65 µg
increase of butyric acid amount relative to Group A [6, 15]: approximately 14.5 times of that in Group A
increase of butyric acid concentration relative to Group A [6, 15]: approximately 10 times of that in Group A
concentration of butyric acid in cecal contents ([6]; Group E: feed with 5% by mass 1-kestose, 1.34 g/kg body weight, Group A 205.86 μg/g): 2005.26 µg/g
amount of butyric acid in cecal contents [6, 15]: 11943.88 µg
concentrations and amounts of acetic acid in comparison with Group A [6, 16]: significantly increased
concentrations and amounts of isobutyric acid in comparison with Group A [6, 16]: significantly decreased
concentrations and amounts of isovaleric acid in comparison with Group A [6, 16]: not significantly different
concentrations and amounts of propionic acid in comparison with Group A [6, 16]: not significantly different
concentrations and amounts of valeric acid in comparison with Group A [6, 16]: significantly decreased
concentrations and amounts of butyric acid in comparison with Group A ([6]; any of Groups B to E (0.5 to 5% by mass 1-kestose in feed)): markedly increased

CCCC(=O)O [butyric acid]
fatty degeneration and inflammation in the liver by the intake of high-fat meals [7]: suppress
values of AST, ALT, cholesterol, LDL in blood, neutral fat and fasting blood sugar levels, and insulin resistance index (HOMA-IR) [7]: normalize
inflammatory repair effect [8]: significant inflammatory repair effect
proliferation rate [9]: decrease
proliferation time [9]: extend
body weight and the body fat percentage ([10]; oral, 5 g/kg body weight per day (in terms of sodium butyrate), mice in which obesity has been induced by high-fat meals): reduce
weight gain and increase of the body fat percentage by eating of high-fat meals ([10]; oral, 5 g/kg body weight per day (in terms of sodium butyrate), mice that are not obese): suppress
function and proliferation of β cells [11]: improve
glucose homeostasis [11]: improve
β cell death [11]: decrease

CCCC(=O)[O-].[Na+] [sodium butyrate]
increase of body weight and increase of the body fat percentage ([10]; mice fed on high-fat meals into which 5% by mass is mixed): suppressed
